# Where “and” joins values, the source holds several entries; their conditions need not be identical. Equal values may be shown once. Where a SMILES comes first, the peptide text is derived from it. The star is where a group is joined. Orn(α-tetramethylguanidino) = CN(C)C(=N[C@@H](CCCN)C(=O)*)N(C)C
# Key:
# [1] = test system: E. coli RN31; experiment: Growth inhibition of E. coli RN31 during 90 min exponential growth phase; format: cell-based, Escherichia coli; details: E. coli RN31, 33% TSB, peptide 8 µg/mL, 90 min, OD600; two biological replicates (n = 2)
# [2] = test system: in vitro expression of sfGFP in the presence of RF1; experiment: In vitro transcription-translation (iTT) assay of sfGFP in the presence of RF1; format: biochemical; details: peptide 5 µmol/L, RF1, 37 °C, 2 h, fluorescence; normalized to absence of PrAMPs; n = 3
# Procedure, shortened: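 Cell-free PURExpress ΔRF123 system was supplemented with 50-fold-diluted RF1 and a sfGFP template ending in a UAG stop codon (35 ng, 0.1325 pmol). PrAMP was added from a 50 or 0 µmol/L aqueous solution. Reactions ran at 37 °C for 2 h, with fluorescence (ex 485/em 535 nm) read every 10 min.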
smiles,measurement,setting,value
CC[C@H](C)[C@H](NC(=O)[C@H](Cc1ccc(O)cc1)NC(=O)[C@@H](NC(=O)[C@@H]1CCCN1C(=O)[C@H](CCCNC(=N)N)NC(=O)[C@H](CC(N)=O)NC(=O)[C@H](CC(N)=O)NC(=O)[C@H](CCCN)N=C(N(C)C)N(C)C)C(C)C)C(=O)N1CCC[C@H]1C(=O)N[C@@H](CCCNC(=N)N)C(=O)N1CCC[C@H]1C(=O)N[C@@H](CCCNC(=N)N)C(=O)N1CCC[C@H]1C(=O)N1CCC[C@H]1C(=O)N[C@@H](Cc1c[nH]cn1)C(=O)N1CCC[C@H]1C(=O)N[C@@H](CCCNC(=N)N)C(=O)N[C@@H](CC(C)C)C(=O)O [Api137] ({Orn(α-tetramethylguanidino)}-NNRPVYIPRPRPPHPRL-OH; N-terminus and C-terminus assumed),reduction of bacterial growth vs untreated control,[1],70%
same,Residual iTT (sfGFP expression relative to no PrAMP),[2],22% and 22 ± 6.2%
